Results published in patent US20150150892A1, “METHODS AND PRODUCTS RELATED TO LUNG CANCER” (Massachusetts Institute of Technology, priority 2012, published 2015).

Key:
NF-κB target genes = assay: Quantitative PCR of NF-κB target genes in KP cells; format: cell-based, mouse
Protocol: (§1) FIG. 1. Bortezomib inhibits NF-κB signaling and induces apoptosis in murine lung adenocarcinoma cell lines. (1A) reduction of nuclear p65 level by bortezomib. Two KP (KrasLSL-G12D/wt;p53flox/flox) cell lines (KP1 and KP2) were treated with 5 nM bortezomib (BZ) or vehicle control (ctrl) for 24 hours. Nuclear (N) and cytoplasmic (C) fractions of protein lysates were immunoblotted with the indicated antibodies. NEMO and Parp serve as cytoplasmic and nuclear loading controls, respectively. (1B) quantitative PCR analysis of a subset of NF-κB target genes in 5 nM bortezomib (BZ)-treated KP cells at the indicated time points. Vehicle control is set to 1. (1C) apoptosis in KP and KP^M (KrasLSL-G12D/wt;p53R127H/−) cells induced by bortezomib. Cells were pre-treated with 5 nM bortezomib for 24 hours, and protein lysates were immunoblotted with CC3 and tubulin antibodies. (1D) quantification of cell death in bortezomib-treated cells. Cells were treated with the indicated concentrations of bortezomib for 24 hours, and dead cells were quantified by Trypan blue staining. Error bars are SD (n=3).
(§2) FIG. 7: The NF-κB inhibitor Bay-117082 leads to lung tumor regression in vivo. (7A) quantitative PCR analysis of NF-κB target gene expression in KP cells treated with 10 μM Bay-117082 for indicated hours. Error bars are SD (n=3). (7B) Bay-117082 treatment leads to lung tumor regression and delays tumor progression in the orthotopic lung tumor model. A total of 50,000 luciferase-tagged KP cells were transplanted into recipient mice (n=6), and treatment was started at 19 days after transplantation (set at D0). Mice were treated with vehicle control or 10 mg/kg Bay-117082 by i.p. injection, and imaged at the indicated time points. Arrows indicate Bay-117082 injections. (7C) Bay-117082 prolongs survival in the KP model (n=6; P=0.008). “i.p. dosing” indicates treatment with 3 doses per week.
RNA was purified using TRIzol (Invitrogen), according to the manufacturer's instructions. One microgram of RNA was reverse transcribed using the High-Capacity cDNA Reverse Transcription Kit (Applied Biosystems). Real-time PCR (quantitative PCR) amplification was performed using Taqman probes (Applied Biosystems). Data were normalized to the Gapdh (mouse) or GAPDH (human) levels.

KP and KP^M cell lines = assay: Cell viability assay (Cell Titer Aqueous Kit); format: cell-based, mouse; details: KP cell lines, increasing doses of Bay-117082, 48 hours
Protocol: FIG. 2: Bortezomib sensitivity correlates with basal NF-κB activity in KP lung adenocarcinoma cell lines. […] 3TZ, diamond; LKR13, triangle; KP, solid lines; KPM, dashed lines. Error bars are SD (n=3). (2B) lung cancer cell lines with high basal NF-κB activity were sensitive to bortezomib. NF-κB p65 DNA-binding activity was determined by ELISA from nuclear extracts of KP cell lines and LKR13 cells (set as 1). Relative viability was measured after 5 nM bortezomib treatment, as in 2A. FIG. 17: Bay-117082 induces cell death In KP cells. […] (17B) Bay-117082 induces apoptosis in KP cells. Cells were treated with 10IJM Bay-117082 for 48 hours. […] Cell culture conditions were as described recently (30).

IKK kinase activity = details: cited from earlier work
[1] = test system: stress-activated protein kinases, p38 and JNK-1; details: cited from earlier work
[2] = test system: luciferase-tagged KP cells transplanted into immunocompetent recipient mice; assay: Orthotopic lung tumor model, survival and bioluminescence imaging; format: in vivo, mouse
Source text: FIG. 6: Imaging bortezomib response and resistance in an orthotopic lung tumor model. (6A) experimental design. Lung cancer cells derived from KP tumors were infected with a retrovirus expressing luciferase and transplanted into immunocompetent recipient mice by tail vein injection. (6B) Kaplan-Meier survival curve of control and bortezomib-treated recipient mice (n=6; P=1.4×10−5). A total of 10,000 cells were transplanted, and treatment started after 35 days. (6C) representative bioluminescence imaging of recipient mice (n=6) treated with vehicle control or bortezomib, as in 6B. D0 refers to the first treatment. Arrows indicate weekly bortezomib regimen.
as §2
At indicated time points, mice were scanned for 15 min under isoflurane anesthesia, using a small animal eXplore Locus microCT (GE Healthcare) at 45-μm resolution, 80 kV, with 450-mA current (47). Images were acquired and processed using GE eXplore software. Bioluminescence imaging was performed as previously described (48). Mice were imaged for 60 seconds, and signals in the lung were quantified using Xenogen software.
To facilitate imaging of the bortezomib treatment response, we adapted a transplantation-based orthotopic lung cancer mouse model (37). As outlined in FIG. 6A, we infected KP cell lines with a retrovirus expressing firefly luciferase. The cells were transplanted into immunocompetent recipient mice by i.v. injection, resulting in the development of in situ lung tumors that could be imaged and quantified by bioluminescence imaging.
To determine whether bortezomib therapy was effective in the orthotopic model, we transplanted 10,000 KP cells into host mice and treated the mice 5 weeks later, either with control or with a weekly 4-dose regimen of bortezomib (37).

KP and KP^M cells = assay: Cleaved caspase 3 (CC3) immunoblot in lung adenocarcinoma cells; format: cell-based, mouse; details: KP cell lines, 10IJM Bay-117082, 48 hours
Protocol: as §1
FIG. 17: Bay-117082 induces cell death In KP cells. […] (17B) Bay-117082 induces apoptosis in KP cells. Cells were treated with 10IJM Bay-117082 for 48 hours. Protein lysates were immunoblotted with cleaved caspase 3 (CC3) and Tubulin antibodies.
Cell pellets were lysed in Laemmli buffer. […]

KP mice = assay: Kaplan-Meier survival of KP mice; format: in vivo, mouse; details: KP mice 8 weeks post Adeno-Cre, Bay-117082 10 mg/kg i.p. 3 times per week for 4 weeks; control 79.0±13.2 days; P=0.008
Protocol: (5A and 5B) Kaplan-Meier survival curve of vehicle control and bortezomib-treated KP (5A) and K (5B) mice. Arrows indicate weekly 1 mg/kg bortezomib regimen. […] Arrows indicate bortezomib injection.
To initiate lung tumors, cohorts of K or KP mice of 129svJae background were infected with 2.5×10^7 plaque-forming units of Adeno-Cre (University of Iowa) by intranasal inhalation, as described previously (2, 28). Mice were given bortezomib (LC Labs) in PBS [0.5% dimethylsulfoxide (DMSO)] at 1 mg/kg body weight i.v., as indicated.
To analyze the long-term effects of bortezomib therapy, we investigated whether a 4-dose regimen of bortezomib (19) could prolong survival of tumor-bearing mice. Using a cohort of KP mice, we treated tumor-bearing animals 8 weeks after Adeno-Cre infection with bortezomib once a week for 4 weeks (FIG. 10A).

Hmgsc2 mRNA = Hmgsc2 mRNA in bortezomib resistant cells; format: cell-based; details: vs control shRNA
Source text: As shown in the data the control levels of Hmgsc2 are quite high in the control and low in the other samples.
The effects of Hmgsc2 expression in bortezomib resistant cells was examined to determine if Hmgsc2 would be a good therapeutic target for the treatment of NF-kB regulated lung cancers. […] As shown in the data the control levels of Hmgsc2 are quite high in the control and low in the other samples.

Cc1ccc(S(=O)(=O)/C=C/C#N)cc1 [Bay-117082]
Xiap inhibition, Bay-117082 compared with bortezomib (NF-κB target genes; KP cells in vitro, FIG. 1B and FIG. 7A): stronger
expression of prosurvival NF-κB target genes such as Bcl2, Bclx1, Xiap (NF-κB target genes; KP cells, 10 μM Bay-117082, indicated hours): downregulates
cell death (relative cell viability) (KP and KP^M cell lines): cell death
IKK kinase activity (IKK kinase activity): inhibits
effect on stress-activated protein kinases p38 and JNK-1 [1]: stimulate
lung tumor signal in the initial phase ([2]; 50,000 luciferase-tagged KP cells, 10 mg/kg Bay-117082 i.p., 0-9 days): significantly reduced lung tumor signal
lung tumor progression ([2]; orthotopic model, 10 mg/kg Bay-117082 i.p.): delayed lung tumor progression until 42 days
tumor response under continuous treatment ([2]; orthotopic model, 42-63 days): eventually became refractory to therapy
caspase 3 cleavage (KP and KP^M cells): induced caspase 3 cleavage
survival (KP mice): 120.2 ± 27.0 days

insulin: positive control; represses Hmgcs2
relative amount of Hmgsc2 mRNA (Hmgsc2 mRNA): low
